From US20260265262A1, “CDK2 INHIBITORS AND METHODS OF USING THE SAME” (Cedilla Therapeutics, Inc., priority 2022, published 2026)

What was measured:
CDK2/Cyclin E1 [1] = target: T1, CDK2/Cyclin E1 (Homo sapiens, UniProt P24941); assay: CDK2/Cyclin E1 Caliper LabChip EZ Reader mobility shift assay; type: biochemical; settings: 2.5 nM CDK2/Cyclin E1, 100 μM ATP, 1.5 μM fluorescent peptide, 30 min pre-incubation; read-out: Caliper Assay (CDK2/CCNE1): IC50
Description: Inhibition of CDK2/Cyclin E1 activity in the presence of compounds of the present disclosure was evaluated using a CaliperLabChip® EZ Reader mobility shift assay. In the assay, CDK2/Cyclin E1 (Eurofins, 14-475) catalyzed the phosphorylation of a fluorescently tagged peptide 5-FAM-QSPKKG-CONH2 (PerkinEliner, FL Peptide 18) which induced a difference in capillary electrophoresis mobility. The peptide substrate and product were measured, and the conversion ratio was used to determine the inhibition (as % activity and IC50 values) of CDK2/Cyclin E1. Reactions contained 50 mM HEPES pH 7.5, 10 mM MgCl2, 1 mM EDTA, 2 mM DTT, 0.01% Brij35, 0.5 mg/mL BSA, 0.1% DMSO, 2.5 nM CDK2/Cyclin E1, 100 μM ATP, and 1.5 μM fluorescent peptide substrate.
Dose titrations of inhibitors in 100% DMSO were combined with 3.25 nM CDK2/Cyclin E1 and 130 μM of ATP in reaction buffer. The mixtures were incubated for 30 minutes before the addition of fluorescent peptide substrate to initiate the kinase reaction. The final conditions were 2.5 nM CDK2/Cyclin E1, 100 μM ATP, and 1.5 μM fluorescent peptide. The reactions were stopped after 100 minutes with the addition of EDTA (400 mM final EDTA concentration). The stopped reactions were analyzed on a Caliper LabChip® EZ Reader II. The conversion ratios were normalized to yield % activity, plotted against compound concentration, and fit to a four-parameter equation to determine the IC50 for each compound.

Kuramochi cells = assay: IncuCyte cell proliferation assay; type: cell-based; settings: Kuramochi cells labeled with mApple-H2B, cell count 0 to 72 hours, 20 μM top concentration; read-out: IncuCyte Kuramochi RB-WT: IC50
How it was run: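 Kuramochi cells expressing mApple-H2B were treated with a 10-point, ½-log dilution series (top 20 μM). Fluorescent nuclei were counted by IncuCyte imaging at 0 and 72 h. The fold change in cell count was normalized to DMSO wells and fitted to dose-response curves to give […].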

CDK2/Cyclin E1 [2] = target: T1, CDK2/Cyclin E1; assay: ADP-Glo Luminescent Kinase Assay (CDK2/E1-37C); type: biochemical; settings: 0.18 nM CDK2/Cyclin E1, 100 μM ATP, 1.5 μM Histone H1, 37° C., 60 min pre-incubation; read-out: ADPGLO (CDK2/E1-37C): IC50
How it was run: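 Human CDK2/Cyclin E1 preincubated with inhibitor 60 min at 37 °C, then reacted 90 min at 37 °C with final 0.18 nM enzyme, 100 μM ATP, 1.5 μM Histone H1 in HEPES pH 7.5 buffer. ADP formed read by ADP-Glo luminescence; IC50 from four-parameter fit.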

| SMILES | IC50 (CDK2/Cyclin E1 [1]) [nM] | IC50 (Kuramochi cells) [nM] | IC50 (CDK2/Cyclin E1 [2]) [nM] |
| --- | --- | --- | --- |
| Cc1nc(C)c(C(=O)N2C[C@@H](C(=O)NC(C(=O)N3CCC(C(F)(F)F)CC3)[C@@H](C)OCC3(CO)CC=CCC3)C3(C2)CN(C(=O)[C@H]2CC2(C)C)C3)s1 (stereo partly drawn) [Example I-50, (8S)-2-((S)-2,2-dimethylcyclopropane-1-carbonyl)-6-(2,4-dimethylthiazole-5-carbonyl)-N-((2S,3R)-3-((1-(hydroxymethyl)cyclohex-3-en-1-yl)methoxy)-1-oxo-1-(4-(trifluoromethyl)piperidin-1-yl)butan-2-yl)-2,6-diazaspiro[3.4]octane-8-carboxamide] | < 10 | 500 to 5000 |  |
| C[C@@H](OCC1CCCCC1)[C@H](NC(=O)[C@@H]1CN(C(=O)c2cnn(Cc3ccccc3)c2)CC12CN(C(=O)[C@H]1CC1(C)C)C2)C(=O)NCCC(=O)O [Example I-41, 3-((2S,3R)-2-((S)-6-(1-benzyl-1H-pyrazole-4-carbonyl)-2-((S)-2,2-dimethylcyclopropane-1-carbonyl)-2,6-diazaspiro[3.4]octane-8-carboxamido)-3-(cyclohexylmethoxy)butanamido)propanoic acid] | < 10 | > 20000 | < 500 |
| CNC(=O)[C@@H](NC(=O)[C@@H]1CN(C(=O)c2cncs2)CC12CN(CC1CCCO1)C2)[C@@H](C)OCC1(CO)CC=CCC1 (stereo partly drawn) [Example I-49] | 100 to 1000 | > 20000 | > 10000 |
| COC(=O)CCNC(=O)[C@@H](NC(=O)[C@@H]1CN(C(=O)c2cnn(Cc3ccccc3)c2)CC12CN(C(=O)[C@H]1CC1(C)C)C2)[C@@H](C)OCC1CCCCC1 [Example I-42] | < 10 | < 500 | < 500 |
| COC[C@H]1CCCN(C(=O)[C@@H](NC(=O)[C@H]2CN(C(=O)c3cncs3)CC23CN(C(=O)[C@H]2CC2(C)C)C3)[C@@H](C)OCC2CCCCC2)C1 [Example I-116, (R)—N-((2S,3R)-3-(cyclohexylmethoxy)-1-((S)-3-(methoxymethyl)piperidin-1-yl)-1-oxobutan-2-yl)-2-((S)-2,2-dimethylcyclopropanecarbonyl)-6-(thiazole-5-carbonyl)-2,6-diazaspiro[3.4]octane-8-carboxamide] | 100 to 1000 | 5000 to 20000 |  |
| C[C@@H](OCC1CCCCC1)[C@H](NC(=O)[C@@H]1CN(C(=O)c2cnn(Cc3ccccc3)c2)CC12CN(C(=O)[C@H]1CC1(C)C)C2)C(=O)N1CCC(c2ccc(C(=O)O)cc2)CC1 [Example I-45] | < 10 | 500 to 5000 | < 500 |
| CNC(=O)C(NC(=O)[C@@H]1CN(C(=O)c2cncs2)CC12CN(CC1CCCO1)C2)[C@@H](C)OCC12CCC(CC1)OC2 (stereo partly drawn) [Example I-59, (8S)—N-((3R)-3-((2-oxabicyclo[2.2.2]octan-4-yl)methoxy)-1-(methylamino)-1-oxobutan-2-yl)-2-((tetrahydrofuran-2-yl)methyl)-6-(thiazole-5-carbonyl)-2,6-diazaspiro[3.4]octane-8-carboxamide] | 100 to 1000 | 5000 to 20000 |  |
| C[C@@H](OCC1CCC2(CCC2)CC1)[C@H](NC(=O)[C@@H]1CN(C(=O)c2cnn(Cc3ccccc3)c2)CC12CN(C(=O)[C@H]1CC1(C)C)C2)C(=O)O [Example I-40, N—((S)-6-(1-benzyl-1H-pyrazole-4-carbonyl)-2-((S)-2,2-dimethylcyclopropane-1-carbonyl)-2,6-diazaspiro[3.4]octane-8-carbonyl)-O-(spiro[3.5]nonan-7-ylmethyl)-L-threonine] | < 10 | > 20000 | < 500 |
| COC(=O)[C@@H](NC(=O)[C@@H]1CN(C(=O)c2cnn(Cc3ccccc3)c2)CC12CN(C(=O)[C@H]1CC1(C)C)C2)[C@@H](C)OCC1CCC2(CCC2)CC1 [Example I-43] | < 10 | 500 to 5000 | < 500 |
| C[C@@H](OCC1CCCCC1)[C@H](NC(=O)[C@@H]1CN(C(=O)c2cnn(Cc3ccccc3)c2)CC12CN(C(=O)[C@H]1CC1(C)C)C2)C(=O)N1CCC[C@@H](C(=O)O)C1 [Example I-46] | < 10 | > 20000 | < 500 |
| COC(=O)[C@@H]1CCCCN1C(=O)[C@@H](NC(=O)[C@@H]1CN(C(=O)c2cnn(Cc3ccccc3)c2)CC12CN(C(=O)[C@H]1CC1(C)C)C2)[C@@H](C)OCC1CCCCC1 [Example I-38] | < 10 | < 500 | < 500 |
| Cc1nc(C)c(C(=O)N2C[C@@H](C(=O)N[C@H](C(=O)N3CCC(OC(F)(F)F)CC3)[C@@H](C)OCC3(CO)CC=CCC3)C3(C2)CN(C(=O)[C@H]2CC2(C)C)C3)s1 (stereo in doubt) [Example I-51] | 10 to 100 | 500 to 5000 |  |
| Cc1nc(C)c(C(=O)N2C[C@@H](C(=O)NC([C@@H](C)OCC3(CO)CC=CCC3)C(C)(C)O)C3(C2)CN(C(=O)C(C)(C)C2CC2)C3)s1 (stereo partly drawn) [Example I-56, (8S)-2-(2-cyclopropyl-2-methylpropanoyl)-6-(2,4-dimethylthiazole-5-carbonyl)-N-((4R)-2-hydroxy-4-((1-(hydroxymethyl)cyclohex-3-en-1-yl)methoxy)-2-methylpentan-3-yl)-2,6-diazaspiro[3.4]octane-8-carboxamide] | 1000 to 10000 | > 20000 |  |
| COC(=O)C1(CNC(=O)[C@@H](NC(=O)[C@@H]2CN(C(=O)c3cnn(Cc4ccccc4)c3)CC23CN(C(=O)[C@H]2CC2(C)C)C3)[C@@H](C)OCC2CCCCC2)CC1 [Example I-39] | < 10 | < 500 | < 500 |
| CCOC(=O)C(F)(F)CNC(=O)[C@@H](NC(=O)[C@@H]1CN(C(=O)c2cnn(Cc3ccccc3)c2)CC12CN(C(=O)[C@H]1CC1(C)C)C2)[C@@H](C)OCC1CCCCC1 [Example I-47, ethyl 3-((2S,3R)-2-((S)-6-(1-benzyl-1H-pyrazole-4-carbonyl)-2-((S)-2,2-dimethylcyclopropane-1-carbonyl)-2,6-diazaspiro[3.4]octane-8-carboxamido)-3-(cyclohexylmethoxy)butanamido)-2,2-difluoropropanoate] | < 10 | 5000 to 20000 | < 500 |
| COC1CCN(C(=O)[C@@H](NC(=O)[C@@H]2CN(C(=O)c3sc(C)nc3C)CC23CN(C(=O)[C@H]2CC2(C)C)C3)[C@@H](C)OCC2(CO)CC=CCC2)CC1 (stereo in doubt) [Example I-55] | 10 to 100 | > 20000 |  |
| C[C@@H](OCC12CCC(CC1)OC2)[C@H](NC(=O)[C@@H]1CN(C(=O)c2cncs2)CC12CN(CC1CCCO1)C2)C(=O)N1CCC(c2nccs2)CC1 (stereo partly drawn) [Example I-44, (8S)—N-((2S,3R)-3-((2-oxabicyclo[2.2.2]octan-4-yl)methoxy)-1-oxo-1-(4-(thiazol-2-yl)piperidin-1-yl)butan-2-yl)-2-((tetrahydrofuran-2-yl)methyl)-6-(thiazole-5-carbonyl)-2,6-diazaspiro[3.4]octane-8-carboxamide] | > 10000 | > 20000 | > 100000 |
| COC1CCN(C(=O)[C@@H](NC(=O)[C@@H]2CN(C(=O)c3cncs3)CC23CN(C(=O)[C@H]2CC2(C)C)C3)[C@@H](C)OCC2(CO)CC=CCC2)CC1 (stereo in doubt) [Example I-54] | < 10 | 500 to 5000 |  |
| C[C@@H](OCC1(CO)CC=CCC1)[C@H](NC(=O)[C@@H]1CN(C(=O)c2cncs2)CC12CN(C(=O)[C@H]1CC1(C)C)C2)C(=O)N1CCC(C)(C)CC1 (stereo partly drawn) [Example I-53] | < 10 | < 500 |  |
| C[C@@H](OCC1(CO)CC=CCC1)C(NC(=O)[C@@H]1CN(C(=O)c2cnco2)CC12CN(C(=O)C(C)(C)C1CC1)C2)C(C)(C)O (single isomer, unassigned) [Example I-57] | 100 to 1000 | > 20000 |  |
